Where two headings read alike, the source gives them in different places.
What was measured:
[1] = Non-GLP four-week toxicity/toxicokinetic study in macaques (Mannheimer Foundation Study 2010-01); type: in vivo, sub-adult male macaques; conditions: for Tmax: male, macaque, plasma, macaques
Text: Plasma samples for toxicokinetic analysis were collected pre-dose, and at 0.25, 1, 6, 24, and 48 hr postdose on the first day of dosing. Pre-dose, but no post-dose samples were collected on Days 7, 14, 21 and 29. […] The increases for Cmax were slightly greater than directly dose-proportional. The increases for AUC0-t were apparently substantially greater than directly dose-proportional, but the nonlinearity may be in part a reflection of the sampling schedule.

[2] = beagle, dog, in vivo, iv
Description: In the second dog toxicity study, Charles River Study Number 20000334, CoQ10 IV Formulation was administered as short intravenous infusions at the rate of 5.0 mL/min three times a week for four weeks.
An additional two dogs/sex were included in each group and maintained for a 2-week recovery after treatment. A single test article concentration of 40 mg/mL was provided for use on the study. […] Parameters evaluated included cageside observations, clinical observations, body weight, food consumption, ophthalmoscopy, electrocardiography, clinical pathology, gross pathology, organ weights, and histopathology. Blood samples for determination of the plasma concentrations of CoQ10 IV Formulation were collected pre-dose and at 5, 15, 30 and 60 minutes and at 2, 4, 8 and 24 hours post-dose on Days 1 and 26.

COC1=C(OC)C(=O)C(C/C=C(\C)CC/C=C(\C)CC/C=C(\C)CC/C=C(\C)CC/C=C(\C)CC/C=C(\C)CC/C=C(\C)CC/C=C(\C)CC/C=C(\C)CCC=C(C)C)=C(C)C1=O [CoQ10, Coenzyme Q10]
Cmax and AUC0-t versus dose ([1]; macaques, 31.25, 62.5, 125 mg/kg IV, preliminary results): increased with increasing dose | Tmax ([1]; intravenous, one animal): 60 min | Tmax ([1]; 31.25-125 mg/kg IV, first day of dosing): 15 min | AUC0-t ([2]; female, 31.25 mg/kg): 1207 µg·h/mL | AUC0-t ([2]; female, 62.5 mg/kg): 2735 µg·h/mL | AUC0-t ([2]; female, 125 mg/kg): 7370 µg·h/mL | AUC0-t ([2]; male, 31.25 mg/kg): 1038 µg·h/mL | AUC0-t ([2]; male, 62.5 mg/kg): 2719 µg·h/mL | AUC0-t ([2]; male, 125 mg/kg): 7151 µg·h/mL

— patent US11400058B2, “Intravenous formulations of coenzyme Q10 (CoQ10) and methods of use thereof” (Berg LLC, priority 2010, dated 2022)
